≈ marks a conversion by molar mass, not a printed value.
Columns and labels:
Escherichia coli [1] = assay: Antimicrobial activity against Escherichia coli; format: functional
Staphylococcus aureus [2] = assay: Antimicrobial activity against Staphylococcus aureus; format: functional
[3] = Inhibition of FtsZ (unknown origin) assessed as reduction in enzyme GTPase activity
Staphylococcus aureus [4] = assay: Antimicrobial activity against methicillin-resistant Staphylococcus aureus; format: functional
Staphylococcus aureus [5] = assay: Antimicrobial activity against multidrug-resistant Staphylococcus aureus; format: functional
Enterococcus = assay: Antimicrobial activity against […]-resistant Enterococcus; format: functional
[6] = Selectivity index, ratio of IC50 for human HeLa cells to MIC for Staphylococcus aureus MR12160636
Bacillus subtilis [7] = assay: Antimicrobial activity against Bacillus subtilis 168; format: functional
Staphylococcus aureus [8] = assay: Antimicrobial activity against methicillin-sensitive Staphylococcus aureus ATCC 29213; format: functional
Enterococcus faecium = assay: Antimicrobial activity against ampicillin-resistant and levofloxacin-resistant Enterococcus faecium 12160560; format: functional
Enterococcus faecalis = assay: Antimicrobial activity against Enterococcus faecalis ATCC 29212; format: functional
Streptococcus pneumoniae = assay: Antimicrobial activity against Streptococcus pneumoniae ATCC 49619; format: functional
Acinetobacter baumannii = assay: Antimicrobial activity against multidrug-resistant Acinetobacter baumannii 12159796; format: functional
Pseudomonas aeruginosa = assay: Antimicrobial activity against Pseudomonas aeruginosa ATCC 27853; format: functional
Enterobacter cloacae = assay: Antimicrobial activity against multidrug-resistant Enterobacter cloacae 12161389; format: functional
Escherichia coli [9] = assay: Antimicrobial activity against Escherichia coli ATCC 35218; format: functional
Klebsiella pneumoniae = assay: Antimicrobial activity against ESBL producing Klebsiella pneumoniae ATCC 700603; format: functional
[10] = target: T1, Cell division protein FtsZ (Escherichia coli K-12, UniProt P0A9A6); assay: Inhibition of Escherichia coli FtsZ GTPase activity
T1 sequence (P0A9A6 whole entry): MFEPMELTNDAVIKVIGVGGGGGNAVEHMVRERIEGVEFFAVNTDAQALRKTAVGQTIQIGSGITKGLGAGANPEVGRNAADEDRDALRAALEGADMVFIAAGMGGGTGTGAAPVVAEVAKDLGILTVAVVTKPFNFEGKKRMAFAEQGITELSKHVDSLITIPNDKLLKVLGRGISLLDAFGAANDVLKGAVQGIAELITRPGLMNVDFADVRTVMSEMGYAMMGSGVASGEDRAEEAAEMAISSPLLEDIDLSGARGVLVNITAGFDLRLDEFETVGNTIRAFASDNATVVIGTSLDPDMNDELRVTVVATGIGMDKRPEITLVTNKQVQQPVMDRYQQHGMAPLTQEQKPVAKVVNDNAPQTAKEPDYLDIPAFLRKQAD

Bacillus subtilis [11] = assay: Antimicrobial activity against Bacillus subtilis; format: functional
Staphylococcus aureus [12] = assay: Antimicrobial activity against Staphylococcus aureus UAMS1; format: functional
Staphylococcus aureus [13] = assay: Antimicrobial activity against community acquired methicillin-resistant Staphylococcus aureus USA300-LAC; format: functional
Pseudomonas fluorescens = assay: Antimicrobial activity against Pseudomonas fluorescens; format: functional
Staphylococcus [14] = assay: Antimicrobial activity against Staphylococcus; format: functional
Staphylococcus [15] = assay: Antimicrobial activity against Staphylococcus relative to PC190723; format: functional
[16] = target: T1, Cell division protein FtsZ; assay: Binding affinity to Escherichia coli FtsZ by fluorescence anisotrophy
[17] = target: T2, Cell division protein FtsZ (Bacillus subtilis (strain 168), UniProt P17865); assay: Binding affinity to Bacillus subtilis FtsZ
T2 sequence (P17865 whole entry): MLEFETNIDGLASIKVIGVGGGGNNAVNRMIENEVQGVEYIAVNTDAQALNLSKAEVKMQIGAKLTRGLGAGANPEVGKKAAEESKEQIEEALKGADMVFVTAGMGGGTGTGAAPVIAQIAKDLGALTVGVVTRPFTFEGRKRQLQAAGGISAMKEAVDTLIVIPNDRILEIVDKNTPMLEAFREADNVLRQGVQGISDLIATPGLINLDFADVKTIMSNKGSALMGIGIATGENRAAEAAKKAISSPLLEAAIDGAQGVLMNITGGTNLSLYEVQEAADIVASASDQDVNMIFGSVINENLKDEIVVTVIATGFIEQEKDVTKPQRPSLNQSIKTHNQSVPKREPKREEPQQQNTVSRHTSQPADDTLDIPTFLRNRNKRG

HeLa = assay: Cytotoxicity against human HeLa cells; format: cell-based

## CCC(CC)c1cc([C@H]2CN3CC[C@H]2C[C@@H]3CN)nc(-c2ccncc2)n1
Escherichia coli [1]
  MIC: 18 µg/mL (≈ 49.2 µM)
Staphylococcus aureus [2]
  MIC: 9 µg/mL (≈ 24.6 µM)
[3]
  IC50: 37.5 µM

## Oc1cc(O)c2c(c1)C/C(Cl)=C\Cc1cc(c(Cl)cc1O)Oc1c(O)cc(cc1O)C/C(Cl)=C\Cc1cc(c(Cl)cc1O)O2
Staphylococcus aureus [4]
  MIC: 1.5 µg/mL (≈ 2.21 µM)
Staphylococcus aureus [5]
  MIC: 1.3 µg/mL (≈ 1.92 µM)
Enterococcus
  MIC: 2.9 µg/mL (≈ 4.28 µM)

## Cc1nc(-c2cccs2)cc([C@H]2CN3CC[C@H]2C[C@@H]3CNC(=O)CCCC(=O)O)n1
Escherichia coli [1]
  MIC: 192 µg/mL (≈ 449 µM)
Staphylococcus aureus [2]
  MIC: 384 µg/mL (≈ 897 µM)
[3]
  IC50: 317 µM

## O=C(Oc1cc(OC(=O)c2ccc(O)c(Cl)c2)c2ccccc2c1)c1ccc(O)c(Cl)c1
[6]
  Ratio: 5
Bacillus subtilis [7]
  MIC: 4 µg/mL (≈ 8.52 µM)
Staphylococcus aureus [8]
  MIC: 8 µg/mL (≈ 17 µM)
Enterococcus faecium
  MIC: 4 µg/mL (≈ 8.52 µM)
Enterococcus faecalis
  MIC: 2 µg/mL (≈ 4.26 µM)
Streptococcus pneumoniae
  MIC: 32 µg/mL (≈ 68.2 µM)
Acinetobacter baumannii
  MIC: 32 µg/mL (≈ 68.2 µM)
Pseudomonas aeruginosa
  MIC: 64 µg/mL (≈ 136 µM)
Enterobacter cloacae
  MIC: 128 µg/mL (≈ 273 µM)
Escherichia coli [9]
  MIC: 128 µg/mL (≈ 273 µM)
Klebsiella pneumoniae
  MIC: 128 µg/mL (≈ 273 µM)

## CCC(CC)c1cc([C@H]2CN3CC[C@H]2C[C@@H]3CNCc2ccco2)nc(-c2ccncc2)n1
Escherichia coli [1]
  MIC: 72 µg/mL (≈ 162 µM)
Staphylococcus aureus [2]
  MIC: 12 µg/mL (≈ 26.9 µM)
[3]
  IC50: 55.7 µM

## CCC(CC)c1cc([C@H]2CN3CC[C@H]2C[C@@H]3CNCc2ccc(CO)o2)nc(-c2ccncc2)n1
Escherichia coli [1]
  MIC: 36 µg/mL (≈ 75.7 µM)
Staphylococcus aureus [2]
  MIC: 24 µg/mL (≈ 50.5 µM)
[3]
  IC50: 73.2 µM

## O=C1C[C@@H](c2ccccc2)Oc2c(Cc3cc(Cc4ccccc4O)ccc3O)c(O)c(Cc3cc(Cc4ccccc4O)ccc3O)c(O)c21
[10]
  IC50: 8.3 µM
Bacillus subtilis [11]
  MIC: 1.77 µg/mL (≈ 2.6 µM)
Staphylococcus aureus [2]
  MIC: 1.16 µg/mL (≈ 1.7 µM)

## Oc1cc(O)cc(C/C(Cl)=C\Cc2cc(O)c(Cl)cc2O)c1
Staphylococcus aureus [12]
  MIC: 1 µg/mL (≈ 2.93 µM)
Staphylococcus aureus [13]
  MIC: 1 µg/mL (≈ 2.93 µM)

## COc1ccc(/N=C/c2ccc(OC(C)=O)c(OC)c2[N+](=O)[O-])cc1
Bacillus subtilis [11]
  MIC: 1.56 µg/mL (≈ 4.53 µM)
Escherichia coli [1]
  MIC: 1.56 µg/mL (≈ 4.53 µM)
Staphylococcus aureus [2]
  MIC: 1.56 µg/mL (≈ 4.53 µM)
Pseudomonas fluorescens
  MIC: 1.56 µg/mL (≈ 4.53 µM)

## NC(=O)c1c(F)ccc(O[C@H](CO)c2nc(-c3ccc(C(F)(F)F)cc3)c(Br)o2)c1F
Staphylococcus [14]
  MIC: 0.12 µg/mL (≈ 0.237 µM)
Staphylococcus [15]
  Ratio: 4

## N=C(N)c1ccc(-c2cc3ccc(C(=N)N)cc3[nH]2)cc1 [DAPI]
[16]
  Kd: 16.6 µM

## O=C1NC(=S)S/C1=C/c1ccc(-c2cccc(C(F)(F)F)c2)o1
Bacillus subtilis [11]
  GI50: 2000 nM
[17]
  Kd: 1500 nM
HeLa
  IC50: 18.1 µM
